{
  "source": "patent US20100179130A1",
  "about": "“USE OF PIPERINE AND DERIVATIVES THEREOF FOR THE THERAPY OF NEUROLOGICAL CONDITIONS” (SYNGIS Bioscience GmbH & Co. KG, priority 2007, published 2010)",
  "key": {"[1]": {"settings": "oral, approximately 5 to 20 mg daily, human patients; cited from earlier work"}, "[2]": {"settings": "cited from earlier work"}, "adult rats": {"system": "adult rats", "experiment": "Neurogenesis in vivo, BrdU/NeuN co-staining of hippocampal slices", "set-up": "species or system rat", "settings": "6 weeks", "experimental": "Male adult rats were divided in three groups. The rats were treated i.p. with 20% Solutol-HS15 (BASF SE) as vehicle (control group, n=11), 1 mg/kg bodyweight piperine (piperine I group, n=14 with total dose of 5 mg/kg piperin), or 10 mg/kg bodyweight piperine (piperine II group, n=13 with total dose of 50 mg/kg) once daily for 5 consecutive days. Piperine was solved in 20% Solutol-HS15 as described in Example 7. Further, all animals received BrdU (i.p. 50 mg/kg bodyweight) twice daily during these initial 5 days. BrdU is stably incorporated by dividing cells and therefore a suitable tool for the labelling of cells that divided within an experimentally defined time-window (i.e. the time during which BrdU was administered, which in the present example corresponds to the time during which Piperine was administered (Bagley et al BMC Neurosci. 2007; 8:92). The animals were sacrificed 6 weeks after the beginning of the treatment. Brains were removed rapidly, fixed with 4% paraformaldehyd and stored in 4% paraformaldehyd for further immunohistochemical analysis. 10 μm slices of the hippocampal area were generated and stained with sheep-anti-BrdU antibodies (Abcam, 1:100) and mouse-anti-NeuN antibodies (Chemicon, 1:500). Subsequently, the slices were stained for fluorescent detection with anti-sheep-biotin plus streptavidin-Cy2 and anti-mouse-Alexa555 (Molecular Probes, Fisher). […]"}, "[3]": {"settings": "cited from earlier work", "remark": "listed apart in the source"}},
  "data": [
    {"smiles": "O=C(/C=C/C=C/c1ccc2c(c1)OCO2)N1CCCCC1", "note": "[Piperine, (E,E)-1-[5-(1,3-benzodioxol-5-yl)-1-oxo-2,4-pentadienyl]piperidine]", "values": [
      {"measurement": "tolerability", "setting": "[1]", "value": "well tolerated"},
      {"measurement": "maximum concentration in rat brain tissue", "setting": "[2]; i.v. bolus of 50 mg/kg", "value": "about 4 μg/ml"},
      {"measurement": "passage of the blood-brain-barrier", "setting": "[2]; rat, in vivo", "value": "passes the intact blood-brain-barrier"},
      {"measurement": "neurogenesis (NeuN/BrdU-positive cells per slice) compared to the control level", "setting": "adult rats; 1 mg/kg i.p. once daily for 5 days (total 5 mg/kg)", "value": "clearly elevated levels of neurogenesis"},
      {"measurement": "neurogenesis (NeuN/BrdU-positive cells per slice) compared to the control level", "setting": "adult rats; 10 mg/kg i.p. once daily for 5 days (total 50 mg/kg)", "value": "clearly elevated levels of neurogenesis"},
      {"measurement": "solubility in water", "setting": "[3]", "value": "essentially insoluble in water"}
    ]}
  ]
}
